Test results: US6160004A, “C-10 carbon-substituted artemisinin-like trioxane compounds having antimalarial, antiproliferative and antitumor activities” (priority 1998, dated 2000)
Like-named read-outs stand apart in the source and are kept apart here.

Columns and labels:
[1] = test system: P. vivax and P. falciparum; settings: cited from earlier work
[2] = test system: Ehrlich ascites tumor (EAT) cells; settings: MTT, growth inhibition; cited from earlier work
60 cell line panel = settings: 60 line panel, earlier studies; cited from earlier work
[3] = test system: P. falciparum Camp (chloroquine-susceptible) and Smith (chloroquine-resistant) strains; settings: P. falciparum in vitro; cited from earlier work
[4] = cited from earlier work
malaria = experiment: In vivo antimalarial activity; parameters: species or system rodents; settings: sc
P. berghei = settings: P. berghei-infected mice, parasitemia 90 percent suppressed; cited from earlier work
[5] = test system: P. falciparum, two Hanian strains; settings: P. falciparum in vitro; cited from earlier work
Stability (hydrolysis) = type: physicochemical
SK-MEL-5 = experiment: NCI 60 cell line panel screening assay (SRB), SK-MEL-5; type: cell-based; settings: Homo sapiens; SK-MEL-5, melanoma, 48 h; read-out: Log10 GI50 (converted)
HCC-2998 = experiment: NCI 60 cell line panel screening assay (SRB), HCC-2998; type: cell-based; settings: Homo sapiens, HCC 2998, 48 h, read-out: Log10 LC50 (converted)
[6] = test system: murine keratinocyte cell line PE; experiment: Growth inhibition of murine keratinocytes (MTT); type: cell-based, murine (SENCAR mice); settings: 100 nanomolar
Protocol: To determine the inhibitory effect of the compositions of the present invention on cell proliferation, screening assays were performed on a murine keratinocyte cell line PE. Cell line PE was chosen for its particular sensitivity to the induction of ornithine decarboxylase (ODC) activity by the extensively characterized tumor promoter TPA. […] PE cell culture medium consisted of Eagle's minimal essential medium without calcium chloride (Whittaker Bioproducts, Walkersville, Mass.) supplemented with 8% chelexed fetal calf serum and 1% antibiotic-antimycotic (Gibco BRL) and the addition of CaCl2 to 0.05 mM Ca^++.
MTT [3-(4,5-dimethylthiazol-2-yl)-2,5-diphenyltetraxolium bromide] was purchased from Sigma Chemical Co. (St. Louis, Mo.), and TPA was supplied by L.C. Services (Woburn, Mass.). L-[^14 C]omithine (56 μCi/mol) was from Amersham/Searle Corp. (Arlington Heights, Ill.). Chemical solvents used in all assays of biological activity were of the highest grade commercially available.
Growth Inhibition. Growth curves, shown in FIGS. 1-5, for PE cells treated with calcitriol and the C-10 carbon-substituted dimers 38, 39, 43, 44, 45, 47 and 48, and monomer 27 generated by assay for the reduction of the tetrazolium-based compound MTT, see Charmichael, et al., Cancer Res., 47:936-942 (1987). […] PE cells were seeded at a density of 5,000 cells/well in 50 μL of medium into 96-well microtiter plates. Twelve hours later, the medium was removed, and cells were treated with 100 μL of fresh medium into which the appropriate amount of calcitriol or analog dissolved in dimethyl sulfoxide (DMSO) had been added, with the concentration of DMSO held constant at 0.1%. […] At 24-hour intervals following the initial treatment of the cells with compounds, 0.1 mg (50 μL of a 2 mg/mL solution) of MTT was added to each well. After 4 hours, the MTT was removed and DMSO added to dissolve the blue formazan dye. Using a microtiter plate reader, the A505 was then determined and cell number calculated from blank-subtracted absorbance values.

IGROVI = experiment: NCI 60 cell line panel screening assay (SRB), IGROVI; type: cell-based; settings: 48 h, read-out: Log10 TGI

C[C@@H]1CC[C@H]2[C@@H](C)C(=O)O[C@@H]3O[C@@]4(C)CC[C@@H]1[C@]32OO4 [Artemisinin]
clinical outcome in malaria patients [1]: clinical cure of all patients | clinical outcome in malaria patients ([1]; listed as artemisinin): used successfully in many thousand malaria patients | IC50 [2]: 29.8 µM | anticancer activity (60 cell line panel): very little anticancer activity | potency compared to mefloquine [3]: comparable | solubility in water [4]: insolubility in water | ED50 (malaria; read-out: ED50 subcutaneous): 3 mg/kg | ED90 (malaria; read-out: ED90 subcutaneous): 8.5 mg/kg | SD90 (P. berghei): 6.20 mg/kg | potency compared to chloroquine [5]: comparable

C[C@H]1[C@@H](F)O[C@@H]2O[C@@]3(C)CC[C@H]4[C@H](C)CC[C@@H]1[C@@]24OO3 [Compound VI, 10β-Fluoro-10-deoxoartemisinin]
stability (Stability (hydrolysis)): stable crystalline solid | GI50 (SK-MEL-5): 0.49 µM | CC50 (HCC-2998): > 100 µM

CC1CCC2C(C)C(CC(=O)c3cccc(C(=O)CC4OC5OC6(C)CCC7C(C)CCC(C4C)C57OO6)c3)OC3OC4(C)CCC1C32OO4 (stereo not drawn) [Dimer 39]
antiproliferative activity relative to calcitriol [6]: at least as antiproliferative as calcitriol | IC (TGI) (IGROVI): > 100 µM
